{"source": "patent US8709803B2", "about": "“Cell transport system comprising a homogeneous mixture of agarose and agarase” (Histocell, S.L., priority 2008, dated 2014)", "key": {"[1]": {"tested_on": "SK-N-MC cells", "assay": "Verification of morphology and cell density by microscopy on plates treated with laminin (FIG. 8b)", "format": "cell-based, human", "conditions": "plates with laminin vs normal plate, same number of starting cells", "protocol": "(§1) As a result, SK-N-MC cells were cultured in standard 24-well plates and in 24-well plates previously treated with laminin (Laminin 24-well Multiwell plates, BD) at a cell density of 300,000 cells per well and 1 ml of specific medium consisting of MEM medium supplemented with 2 mM L-glutamine, 1 mM sodium pyruvate, 0.1 mM non-essential amino acids, […] of gentamicin and 1% antibiotic at 37° C. and 5% CO2.\n(§2) The day after seeding the SK-N-MC cells in the standard 24-well plates and in 24-well plates treated with laminin, transport conditions are simulated according to the specifications described in the previous example.\nIn turn, the analysis of the cell morphology of the cultures of SK-N-MC in normal 24-well plates and 24-well plates treated with laminin shown in FIG. 8b proves that the number of cells in the culture in plates with laminin is greater than that of the culture in a normal plate despite the fact that the number of starting cells for both of them is the same, which reaffirms the results obtained from measuring the proliferation by means of MTT. The non-detection of the difference in the cell density by the proliferation assay by means of MTT can be due to the high cell confluence of both cultures."}, "[2]": {"tested_on": "SK-N-MC cells", "assay": "Proliferation assay with MTT on plates treated with laminin (FIG. 8a)", "format": "cell-based, human", "conditions": "plate treated with laminin vs standard 24-well plate", "protocol": "as §1, §2\nOnce the time necessary for the cells to recover from transport has elapsed, the proliferation rate of both cultures is determined by means of measuring cell proliferation at times 24 and 48 h using the MTT test described in the previous example."}}}
{"substance": "laminin", "values": [{"measurement": "number of cells in the culture (microscopy)", "setting": "[1]", "result": "greater"}, {"measurement": "proliferation rate (MTT)", "setting": "[2]; after 24 hours in culture", "result": "an increase in the proliferation"}, {"measurement": "proliferation rate (MTT)", "setting": "[2]; after 48 hours in culture", "result": "equal"}]}
